Assay results published in paper PMC7316778 (Nature Communications, 2020).
Several values for one entry are separate records, joined by “and”; a condition that tells them apart may be missing. Equal values may be shown once. Read-outs that look alike come from different tables or passages of the source.

How the values were obtained:
INSR = INSR (Homo sapiens, UniProt P06213); assay: SelectScreen kinase assay
Method: (§1) Selectivity profiling assays were performed by the Invitrogen SelectScreen™ Services. […] The concentration of ATP was selected to be equal to the KM, unless indicated otherwise.

PIK3C2A (PI3K-C2 alpha) = PIK3C2A (PI3K-C2 alpha) (Homo sapiens, UniProt O00443); assay: SelectScreen kinase assay; settings: 1 h, 1 μM WEL028, 1 h preincubation
Method: as §1

FES^WT = biological target: T1, FES^WT (Homo sapiens, UniProt P07332); assay: PamChip microarray peptide phosphorylation; assay type: biochemical; settings: Figure 7f, WT + WEL028, n 3
T1 construct: human FES cDNA encoding residues 448–822 or human FER cDNA encoding residues 448–820 was amplified by PCR; made in house; host or cells: E. coli BL21(DE3), co-expressing YopH phosphatase
T1 sequence (P07332 448-822): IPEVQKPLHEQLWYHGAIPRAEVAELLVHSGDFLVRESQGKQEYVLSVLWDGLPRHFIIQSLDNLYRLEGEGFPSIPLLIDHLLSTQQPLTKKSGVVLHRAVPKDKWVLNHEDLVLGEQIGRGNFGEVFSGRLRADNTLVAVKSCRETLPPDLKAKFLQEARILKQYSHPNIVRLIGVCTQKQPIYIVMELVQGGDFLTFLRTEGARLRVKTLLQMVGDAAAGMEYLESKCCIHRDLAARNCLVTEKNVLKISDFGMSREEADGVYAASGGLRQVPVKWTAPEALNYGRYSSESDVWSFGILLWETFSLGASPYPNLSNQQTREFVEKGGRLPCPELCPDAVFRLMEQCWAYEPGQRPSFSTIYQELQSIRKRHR

MAPK3 (ERK1) = MAPK3 (ERK1) (Homo sapiens, UniProt P27361); assay: SelectScreen kinase assay
Chain of MAPK3 (ERK1) (P27361 whole entry): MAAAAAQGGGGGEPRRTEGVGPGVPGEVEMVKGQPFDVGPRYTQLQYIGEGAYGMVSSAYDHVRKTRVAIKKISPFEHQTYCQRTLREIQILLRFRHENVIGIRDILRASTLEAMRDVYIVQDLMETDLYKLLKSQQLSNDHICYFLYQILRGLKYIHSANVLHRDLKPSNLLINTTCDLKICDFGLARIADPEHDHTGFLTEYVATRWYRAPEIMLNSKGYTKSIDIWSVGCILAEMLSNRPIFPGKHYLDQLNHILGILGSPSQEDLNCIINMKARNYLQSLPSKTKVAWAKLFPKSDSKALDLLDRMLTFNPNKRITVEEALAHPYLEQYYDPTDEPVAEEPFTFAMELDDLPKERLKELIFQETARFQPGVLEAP
Method: as §1

FES^S700C HL-60 cells = assay: CD11b surface expression, PMA-induced macrophage differentiation; assay type: cell-based, human; settings: for CD11b-positive cells (%): Figure 6d, S700C
PRKCD (PKC delta) = PRKCD (PKC delta) (Homo sapiens, UniProt Q05655); assay: SelectScreen kinase assay; settings: 1 h, 1 μM WEL028, 1 h preincubation
Method: as §1

STK24 (MST3) = STK24 (MST3) (Homo sapiens, UniProt Q9Y6E0); assay: SelectScreen kinase assay
Chain of STK24 (MST3) (Q9Y6E0 whole entry): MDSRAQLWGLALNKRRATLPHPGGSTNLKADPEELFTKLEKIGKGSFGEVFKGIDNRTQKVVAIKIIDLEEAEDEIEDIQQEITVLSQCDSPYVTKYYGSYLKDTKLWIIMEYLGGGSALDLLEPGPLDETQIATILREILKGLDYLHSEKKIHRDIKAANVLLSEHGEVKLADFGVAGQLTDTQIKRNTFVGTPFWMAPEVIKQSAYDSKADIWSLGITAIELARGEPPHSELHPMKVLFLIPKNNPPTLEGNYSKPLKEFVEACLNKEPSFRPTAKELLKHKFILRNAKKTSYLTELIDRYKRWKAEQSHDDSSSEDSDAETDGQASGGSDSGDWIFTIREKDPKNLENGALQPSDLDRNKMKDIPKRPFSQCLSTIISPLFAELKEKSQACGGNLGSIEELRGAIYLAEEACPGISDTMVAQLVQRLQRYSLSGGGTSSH
Method: as §1

ERBB4 (HER4) = ERBB4 (HER4) (Homo sapiens, UniProt Q15303); assay: SelectScreen kinase assay; settings: for Inhibition at 1 µM (%): ERBB4 (HER4), ZLYTE, ATP Km app
Chain of ERBB4 (HER4) (Q15303 26-1308): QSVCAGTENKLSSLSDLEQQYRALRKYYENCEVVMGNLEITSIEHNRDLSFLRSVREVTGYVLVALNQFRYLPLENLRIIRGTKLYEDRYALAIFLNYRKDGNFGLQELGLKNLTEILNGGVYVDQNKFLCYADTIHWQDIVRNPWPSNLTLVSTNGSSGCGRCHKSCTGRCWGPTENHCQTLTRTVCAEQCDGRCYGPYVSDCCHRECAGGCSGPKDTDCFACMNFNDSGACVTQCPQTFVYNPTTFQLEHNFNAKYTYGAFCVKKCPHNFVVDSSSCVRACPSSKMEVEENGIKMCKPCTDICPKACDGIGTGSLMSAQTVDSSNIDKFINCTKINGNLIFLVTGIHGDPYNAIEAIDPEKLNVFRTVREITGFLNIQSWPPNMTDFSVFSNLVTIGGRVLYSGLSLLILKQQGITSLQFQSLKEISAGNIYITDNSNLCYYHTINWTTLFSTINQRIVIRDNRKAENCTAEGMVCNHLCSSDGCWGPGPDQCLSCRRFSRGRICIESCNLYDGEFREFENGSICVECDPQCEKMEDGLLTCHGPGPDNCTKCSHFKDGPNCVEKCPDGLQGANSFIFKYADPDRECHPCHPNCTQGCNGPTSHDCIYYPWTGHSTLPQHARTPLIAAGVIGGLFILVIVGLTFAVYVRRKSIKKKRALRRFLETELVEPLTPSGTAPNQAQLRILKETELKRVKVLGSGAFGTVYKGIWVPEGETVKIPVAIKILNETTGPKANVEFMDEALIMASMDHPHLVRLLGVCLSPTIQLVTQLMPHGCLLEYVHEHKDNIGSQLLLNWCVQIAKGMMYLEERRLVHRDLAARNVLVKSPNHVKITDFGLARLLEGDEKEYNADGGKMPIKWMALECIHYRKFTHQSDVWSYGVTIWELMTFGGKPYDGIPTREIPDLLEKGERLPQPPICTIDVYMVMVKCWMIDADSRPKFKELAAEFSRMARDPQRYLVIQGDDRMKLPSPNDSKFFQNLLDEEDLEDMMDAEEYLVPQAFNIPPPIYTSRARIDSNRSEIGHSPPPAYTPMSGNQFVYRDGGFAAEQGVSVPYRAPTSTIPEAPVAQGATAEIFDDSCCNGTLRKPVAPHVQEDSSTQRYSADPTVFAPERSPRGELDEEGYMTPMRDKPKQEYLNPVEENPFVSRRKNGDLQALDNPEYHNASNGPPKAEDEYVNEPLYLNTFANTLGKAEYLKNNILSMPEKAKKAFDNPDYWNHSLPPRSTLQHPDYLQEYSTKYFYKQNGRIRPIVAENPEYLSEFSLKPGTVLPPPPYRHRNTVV
Method: as §1

CDK2/cyclin A1 = CDK2/cyclin A1 (Homo sapiens, UniProt P24941); assay: SelectScreen kinase assay
Method: as §1

CHEK2 (CHK2) = CHEK2 (CHK2) (Homo sapiens, UniProt O96017); assay: SelectScreen kinase assay
Method: as §1

PASK = PASK (Homo sapiens, UniProt Q96RG2); assay: SelectScreen kinase assay; settings: for Inhibition at 1 µM (%): PASK, ZLYTE, ATP Km app
Chain of PASK (Q96RG2 whole entry): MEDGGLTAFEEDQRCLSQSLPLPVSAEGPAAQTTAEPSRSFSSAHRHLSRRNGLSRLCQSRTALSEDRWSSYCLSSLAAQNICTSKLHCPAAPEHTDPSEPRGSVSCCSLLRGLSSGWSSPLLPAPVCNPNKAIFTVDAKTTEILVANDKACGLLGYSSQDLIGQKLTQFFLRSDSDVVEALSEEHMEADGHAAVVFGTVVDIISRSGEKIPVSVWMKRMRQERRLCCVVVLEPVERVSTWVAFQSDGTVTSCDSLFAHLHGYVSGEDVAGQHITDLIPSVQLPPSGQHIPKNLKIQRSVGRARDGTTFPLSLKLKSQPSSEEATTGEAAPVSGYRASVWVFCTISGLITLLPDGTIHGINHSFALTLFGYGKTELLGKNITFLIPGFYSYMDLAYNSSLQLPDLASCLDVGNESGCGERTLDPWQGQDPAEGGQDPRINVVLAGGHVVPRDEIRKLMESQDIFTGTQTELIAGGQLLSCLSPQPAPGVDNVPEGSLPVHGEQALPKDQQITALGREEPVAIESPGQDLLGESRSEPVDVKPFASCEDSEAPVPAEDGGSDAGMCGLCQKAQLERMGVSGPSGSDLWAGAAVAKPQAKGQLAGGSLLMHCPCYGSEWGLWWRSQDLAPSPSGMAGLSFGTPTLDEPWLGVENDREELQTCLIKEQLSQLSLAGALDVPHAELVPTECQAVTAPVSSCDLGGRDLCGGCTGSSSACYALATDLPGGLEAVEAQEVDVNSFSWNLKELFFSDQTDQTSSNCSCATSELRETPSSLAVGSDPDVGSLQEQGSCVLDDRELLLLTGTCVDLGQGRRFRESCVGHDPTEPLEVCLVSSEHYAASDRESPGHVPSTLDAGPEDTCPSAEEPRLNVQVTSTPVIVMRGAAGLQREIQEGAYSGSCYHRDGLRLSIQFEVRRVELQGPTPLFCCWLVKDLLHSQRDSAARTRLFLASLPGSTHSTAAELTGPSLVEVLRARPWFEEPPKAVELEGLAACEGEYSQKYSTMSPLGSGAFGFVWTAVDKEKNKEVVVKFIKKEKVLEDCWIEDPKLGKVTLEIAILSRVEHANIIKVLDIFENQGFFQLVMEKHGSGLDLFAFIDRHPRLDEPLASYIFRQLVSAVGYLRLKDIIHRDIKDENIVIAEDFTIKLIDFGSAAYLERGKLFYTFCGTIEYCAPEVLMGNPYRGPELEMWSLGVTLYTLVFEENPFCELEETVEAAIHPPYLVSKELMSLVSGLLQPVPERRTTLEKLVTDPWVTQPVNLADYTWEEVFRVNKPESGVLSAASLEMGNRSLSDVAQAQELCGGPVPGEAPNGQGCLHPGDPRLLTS
Method: as §1

SRPK2 = SRPK2 (Homo sapiens, UniProt P78362); assay: SelectScreen kinase assay; settings: 1 h, 1 μM WEL028, 1 h preincubation
Method: as §1

CHEK1 (CHK1) = CHEK1 (CHK1) (Homo sapiens, UniProt O14757); assay: SelectScreen kinase assay; settings: 1 μM WEL028, 1 h preincubation
Method: as §1

BMPR2 = biological target: T2, BMPR2 (Homo sapiens, UniProt Q13873); assay: SelectScreen kinase assay
T2 sequence (Q13873 27-1038): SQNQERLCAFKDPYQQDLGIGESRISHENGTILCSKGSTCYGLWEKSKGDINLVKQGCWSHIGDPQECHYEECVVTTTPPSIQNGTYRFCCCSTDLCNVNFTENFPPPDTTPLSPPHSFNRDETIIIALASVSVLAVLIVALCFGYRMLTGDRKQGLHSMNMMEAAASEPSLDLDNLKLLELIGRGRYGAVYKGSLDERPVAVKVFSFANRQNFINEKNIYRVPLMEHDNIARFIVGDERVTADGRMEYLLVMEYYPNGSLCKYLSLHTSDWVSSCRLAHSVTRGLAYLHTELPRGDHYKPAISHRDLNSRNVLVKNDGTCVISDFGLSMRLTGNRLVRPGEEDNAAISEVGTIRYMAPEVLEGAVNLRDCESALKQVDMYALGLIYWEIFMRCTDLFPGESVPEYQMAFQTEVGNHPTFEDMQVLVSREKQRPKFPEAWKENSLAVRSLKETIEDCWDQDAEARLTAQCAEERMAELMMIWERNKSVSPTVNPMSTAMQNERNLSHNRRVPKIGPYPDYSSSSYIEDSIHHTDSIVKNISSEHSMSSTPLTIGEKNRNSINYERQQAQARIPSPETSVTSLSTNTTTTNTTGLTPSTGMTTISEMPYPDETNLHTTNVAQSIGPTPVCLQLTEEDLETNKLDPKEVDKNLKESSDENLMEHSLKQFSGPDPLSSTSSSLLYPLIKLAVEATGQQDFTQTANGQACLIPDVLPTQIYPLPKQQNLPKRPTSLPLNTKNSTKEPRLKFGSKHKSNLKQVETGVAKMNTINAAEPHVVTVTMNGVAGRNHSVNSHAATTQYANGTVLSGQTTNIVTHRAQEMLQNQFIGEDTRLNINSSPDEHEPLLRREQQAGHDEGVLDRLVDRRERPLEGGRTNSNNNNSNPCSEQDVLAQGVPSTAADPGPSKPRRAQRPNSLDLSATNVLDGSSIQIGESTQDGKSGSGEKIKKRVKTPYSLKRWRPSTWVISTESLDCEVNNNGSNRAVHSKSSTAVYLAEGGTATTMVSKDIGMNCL
Method: as §1

BLK = BLK (Homo sapiens, UniProt P51451); assay: SelectScreen kinase assay
Chain of BLK (P51451 whole entry): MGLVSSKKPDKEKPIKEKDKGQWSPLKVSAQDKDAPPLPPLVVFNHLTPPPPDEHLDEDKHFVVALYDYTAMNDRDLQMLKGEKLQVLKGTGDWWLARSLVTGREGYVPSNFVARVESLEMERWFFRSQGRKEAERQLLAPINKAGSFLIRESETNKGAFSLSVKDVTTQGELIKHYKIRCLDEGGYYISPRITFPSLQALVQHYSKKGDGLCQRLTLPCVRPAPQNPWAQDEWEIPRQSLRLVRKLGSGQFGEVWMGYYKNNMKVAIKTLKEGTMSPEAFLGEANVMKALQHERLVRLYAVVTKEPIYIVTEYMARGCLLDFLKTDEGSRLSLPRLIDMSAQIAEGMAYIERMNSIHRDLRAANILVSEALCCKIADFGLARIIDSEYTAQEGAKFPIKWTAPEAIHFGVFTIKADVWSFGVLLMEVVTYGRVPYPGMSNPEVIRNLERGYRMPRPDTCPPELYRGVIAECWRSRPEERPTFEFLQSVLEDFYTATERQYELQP
Method: as §1

SGKL (SGK3) = SGKL (SGK3) (Homo sapiens, UniProt Q96BR1); assay: SelectScreen kinase assay
Chain of SGKL (SGK3) (Q96BR1 whole entry): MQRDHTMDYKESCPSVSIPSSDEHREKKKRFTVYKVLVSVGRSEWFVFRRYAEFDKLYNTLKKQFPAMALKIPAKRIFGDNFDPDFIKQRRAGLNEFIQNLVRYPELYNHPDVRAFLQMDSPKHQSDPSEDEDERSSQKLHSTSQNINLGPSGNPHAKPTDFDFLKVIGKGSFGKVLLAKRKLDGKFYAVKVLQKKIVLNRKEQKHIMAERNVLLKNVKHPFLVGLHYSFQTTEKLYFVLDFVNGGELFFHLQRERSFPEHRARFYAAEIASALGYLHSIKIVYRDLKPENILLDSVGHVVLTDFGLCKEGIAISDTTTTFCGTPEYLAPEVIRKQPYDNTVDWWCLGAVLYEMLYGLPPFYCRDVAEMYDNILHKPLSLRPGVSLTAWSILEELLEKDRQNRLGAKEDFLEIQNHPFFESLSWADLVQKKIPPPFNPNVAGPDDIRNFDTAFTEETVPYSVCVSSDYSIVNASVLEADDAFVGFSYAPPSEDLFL
Method: as §1

STK22D (TSSK1) = STK22D (TSSK1) (Homo sapiens, UniProt Q9BXA7); assay: SelectScreen kinase assay; settings: 1 h, 1 μM WEL028, 1 h preincubation
Method: as §1

[1] = 1 h, 1 μM WEL028, 1 h preincubation
[2] = 1 µM, ZLYTE, ATP Km app, listed as WEL028, 1 µM

## C#CCOc1ccc(Nc2ncc(Cl)c(Nc3ccccc3NC(=O)C=C)n2)c(OC)c1 [Compound 6]
INSR; 1 h
  inhibition at 1 µM: 11%
INSR; read-out: Inhibition at 1 µM (%)
  inhibition at 1 µM: 11%
PIK3C2A (PI3K-C2 alpha)
  inhibition at 1 µM: 5%
FES^WT; time 0 min
  Mean signal, time course: -37.0
FES^WT; time 5 min
  Mean signal, time course: 24.0
FES^WT; time 10 min
  Mean signal, time course: 80.0
FES^WT; time 15 min
  Mean signal, time course: 138.0
FES^WT; time 20 min
  Mean signal, time course: 193.0
FES^WT; time 25 min
  Mean signal, time course: 246.0
FES^WT; time 30 min
  Mean signal, time course: 301.0
FES^WT; time 35 min
  Mean signal, time course: 361.0
FES^WT; time 40 min
  Mean signal, time course: 414.0
FES^WT; time 45 min
  Mean signal, time course: 472.0
FES^WT; time 50 min
  Mean signal, time course: 524.0
FES^WT; time 55 min
  Mean signal, time course: 585.0
FES^WT; time 60 min
  Mean signal, time course: 641.0
MAPK3 (ERK1); [1]
  inhibition at 1 µM: 19%
MAPK3 (ERK1); MAPK3 (ERK1), 1 µM, ZLYTE, ATP Km app, listed as WEL028, 1 µM
  Inhibition at 1 µM (%): 14%
MAPK3 (ERK1); read-out: Inhibition at 1 µM (%), MAPK3 (ERK1), 1 µM, ZLYTE, ATP Km app
  inhibition at 1 µM: 23%
FES^S700C HL-60 cells; 100 nM WEL028
  Increase in CD11b expression: 3%
  Percentage of CD11b-positive cells: minimally affected
FES^S700C HL-60 cells; 1 µM WEL028
  CD11b expression: completely failed to express CD11b
FES^S700C HL-60 cells; WEL028 100 nM
  CD11b-positive cells (%): 93.479% and 95.735% and 92.126%
FES^S700C HL-60 cells; WEL028 1 µM
  CD11b-positive cells (%): 19.047% and 18.635% and 20.613%
PRKCD (PKC delta)
  inhibition at 1 µM: 14%
STK24 (MST3); 1 μM WEL028, 1 h preincubation
  Inhibition (%): 12%
STK24 (MST3); [2]
  Inhibition at 1 µM (%): 15%
STK24 (MST3); read-out: Inhibition at 1 µM (%), 1 µM, ZLYTE, ATP Km app
  inhibition at 1 µM: 9%
ERBB4 (HER4); [1]
  inhibition at 1 µM: 8%
ERBB4 (HER4)
  Inhibition at 1 µM (%): 11%
ERBB4 (HER4); listed as WEL028, 1 µM
  Inhibition at 1 µM (%): 5%
CDK2/cyclin A1; 1 μM WEL028, 1 h preincubation
  Inhibition (%): 5%
CDK2/cyclin A1; CDK2/cyclin A1, 1 µM, LanthaScreen Binding, listed as WEL028, 1 µM
  Inhibition at 1 µM (%): 7%
CDK2/cyclin A1; read-out: Inhibition at 1 µM (%), CDK2/cyclin A1, 1 µM, LanthaScreen Binding
  inhibition at 1 µM: 4%
CHEK2 (CHK2); [1]
  inhibition at 1 µM: 4%
CHEK2 (CHK2); CHEK2 (CHK2), 1 µM, ZLYTE, ATP Km app
  Inhibition at 1 µM (%): 14%
PASK; [1]
  inhibition at 1 µM: 2%
PASK
  Inhibition at 1 µM (%): -3%
PASK; listed as WEL028, 1 µM
  Inhibition at 1 µM (%): 7%
SRPK2
  inhibition at 1 µM: -1%
CHEK1 (CHK1)
  Inhibition (%): 0%
BMPR2; 1 μM WEL028, 1 h preincubation
  Inhibition (%): 3%
BMPR2; BMPR2, 1 µM, LanthaScreen Binding, listed as WEL028, 1 µM
  Inhibition at 1 µM (%): 2%
BMPR2; read-out: Inhibition at 1 µM (%), BMPR2, 1 µM, LanthaScreen Binding
  inhibition at 1 µM: 4%
BLK; [1]
  inhibition at 1 µM: 0%
BLK; BLK, 1 µM, ZLYTE, ATP Km app, listed as WEL028, 1 µM
  Inhibition at 1 µM (%): 4% and -5%
SGKL (SGK3); [2]
  Inhibition at 1 µM (%): -12% and -2%
SGKL (SGK3); [1]
  inhibition at 1 µM: -7%
STK22D (TSSK1)
  inhibition at 1 µM: 19%
